Values of other authors as cited in US20190136321A1, “USE OF TRANSLATIONAL PROFILING TO IDENTIFY TARGET MOLECULES FOR THERAPEUTIC TREATMENT” (The Regents of The University of California, priority 2013, published 2019).
Where two headings read alike, the source gives them in different places.

Tested on: V600E-BRAF tumor cells
Conditions: cited from earlier work

O=C(NOC[C@H](O)CO)c1ccc(F)c(F)c1Nc1ccc(I)cc1F [PD0325901]
PNAS rna (gene ALF/GTF2A1L): 2.7 log2 MEKi/DMSO | PNAS rna (gene ARID5A): −1.7 log2 MEKi/DMSO | PNAS rna (gene B4GALT6): −1.7 log2 MEKi/DMSO | PNAS rna (gene BXDC2/BRIX1): −1.2 log2 MEKi/DMSO | PNAS rna (gene BYSL): −1.2 log2 MEKi/DMSO | PNAS rna (gene CCND1): −2.2 log2 MEKi/DMSO | PNAS rna (gene CD3EAP): −1.4 log2 MEKi/DMSO | PNAS rna (gene CHSY1): −1.3 log2 MEKi/DMSO | PNAS rna (gene DDX21): −1.1 log2 MEKi/DMSO | PNAS rna (gene DUSP4): −2.2 log2 MEKi/DMSO | PNAS rna (gene DUSP6): −2.6 log2 MEKi/DMSO | PNAS rna (gene EGR1): −2.1 log2 MEKi/DMSO | PNAS rna (gene ELOVL6): −1.5 log2 MEKi/DMSO | PNAS rna (gene ETV1): −2.6 log2 MEKi/DMSO | PNAS rna (gene ETV4): −2.2 log2 MEKi/DMSO | PNAS rna (gene ETV5): −1.7 log2 MEKi/DMSO | PNAS rna (gene FLJ10534/TSR1): −1.1 log2 MEKi/DMSO | PNAS rna (gene FOS): −3.4 log2 MEKi/DMSO | PNAS rna (gene FOSL1): −4.2 log2 MEKi/DMSO | PNAS rna (gene GEMIN4): −1.2 log2 MEKi/DMSO | PNAS rna (gene GNL3): −1.0 log2 MEKi/DMSO | PNAS rna (gene GPR3): −2.1 log2 MEKi/DMSO | PNAS rna (gene GTPBP4): −1.1 log2 MEKi/DMSO | PNAS rna (gene HMGA2): −1.6 log2 MEKi/DMSO | PNAS rna (gene HSPC111/NOP16): −1.3 log2 MEKi/DMSO | PNAS rna (gene HYDIN): 2.1 log2 MEKi/DMSO | PNAS rna (gene IER3): −3.3 log2 MEKi/DMSO | PNAS rna (gene IL8): −2.5 log2 MEKi/DMSO | PNAS rna (gene KIR3DL2): 1.7 log2 MEKi/DMSO | PNAS rna (gene LIF): −3.2 log2 MEKi/DMSO | PNAS rna (gene LNK/SH2B3): −2.0 log2 MEKi/DMSO | PNAS rna (gene MAFF): −2.7 log2 MEKi/DMSO | PNAS rna (gene MAP2K3): −1.5 log2 MEKi/DMSO | PNAS rna (gene MYC): −2.4 log2 MEKi/DMSO | PNAS rna (gene PHLDA2): −2.2 log2 MEKi/DMSO | PNAS rna (gene PLK3): −2.3 log2 MEKi/DMSO | PNAS rna (gene POLR1C): −1.0 log2 MEKi/DMSO | PNAS rna (gene POLR3G): −1.0 log2 MEKi/DMSO | PNAS rna (gene PPAN): −1.2 log2 MEKi/DMSO | PNAS rna (gene PPAT): −1.1 log2 MEKi/DMSO | PNAS rna (gene PYCRL): −2.6 log2 MEKi/DMSO | PNAS rna (gene RRS1): −1.8 log2 MEKi/DMSO | PNAS rna (gene SEMA6A): 2.1 log2 MEKi/DMSO | PNAS rna (gene SLC1A5): −1.2 log2 MEKi/DMSO | PNAS rna (gene SLC4A7): −1.6 log2 MEKi/DMSO | PNAS rna (gene SPRED2): −1.0 log2 MEKi/DMSO | PNAS rna (gene SPRY2): −4.0 log2 MEKi/DMSO | PNAS rna (gene SPRY4): −2.6 log2 MEKi/DMSO | PNAS rna (gene TNC): −2.5 log2 MEKi/DMSO | PNAS rna (gene TNFRSF12A): −1.5 log2 MEKi/DMSO | PNAS rna (gene WDR3): −1.1 log2 MEKi/DMSO | PNAS rna (gene YRDC): −1.2 log2 MEKi/DMSO
